Patent US6770738B1, “Higher order structure and binding of peptide nucleic acids” (ISIS Pharmaceuticals, Inc., priority 1992, dated 2004)
{NH2} = free C-terminal carboxamide without lysine

How the values were obtained:
Type in all cases: binding
[1] = test system: complementary deoxyoligonucleotide; assay: Melting temperature of complexes with complementary DNA; conditions: 100 mM NaCl, 10 mM Na-phosphate, 0.1 mM EDTA, pH 7, 4 μM of each strand
Protocol: (§1) The thermal stability measured as the melting temperature, Tm, of complexes between the pentadecamer, H-TGTACGTCACAACTA-NH2 (SEQ ID NO:10) and the complementary deoxyoligonucleotide 3′-ACATGCAGTGTTGAT (SEQ ID NO:47) (termed anti-parallel orientation: amino terminal of the PNA complementary to the 3′-end of the oligonucleotide) was 69.5° C. (see Table II), whereas the Tm of the corresponding PNA-DNA complex in parallel orientation was 56.1° C. The Tm for the PNA-RNA complexes was 72.3 and 51.2° C., respectively (see Table II). The orientation preference was further settled by using two decamer PNAs, and hybridizing these to complementary oligonucleotides in both orientations. The anti-parallel orientation was preferred in all cases (see Table II). Furthermore, it is noteworthy that virtually identical Tms were obtained regardless of which strand is the PNA and which is the DNA (see Table II, 2nd & 3rd row).

complementary RNA [2] = assay: Melting temperature of complexes with complementary RNA; conditions: 100 mM NaCl, 10 mM Na-phosphate, 0.1 mM EDTA, pH 7, 4 μM of each strand
Protocol: as §1

[3] = test system: oligonucleotides 3′-d(ACATGXYZVGTTGAT) with a single base mismatch; assay: Effect of base pair mismatches on thermal stability of PNA/DNA complexes; conditions: mismatch facing GTCA; 10 mM Na-phosphate, pH 7.0, 150 mM NaCl, 1 mM MgCl2
Text: To test if PNA containing all four natural nucleobases is a true DNA mimic in terms of base pair specific hybridization to complementary oligonucleotides a pentadecamer PNA was designed to contain an almost equal number of pyrimidines and purines yet having no more than two purines or pyrimidines juxtaposed. It contains an equal number of thymines and cytosines and a single guanine. Furthermore, the sequence of the pentadecamer is non-selfcomplementary and contains a GTCA sequence at the center. By measuring the thermal stability of complexes between the PNA pentadecamer and the Watson-Crick complementary oligonucleotide, as well as 12 other oligonucleotides each having a single base mismatch at one of the four center PNA nucleobases, information about PNA-DNA base pair recognition was obtained. Finally, the PNA was designed with no pyrimidine stretches so as to strongly disfavor—if not prohibit—triplex formation.
In each of the twelve other oligonucleotides, three of the bases (X,Y,Z,V) were complementary while the fourth was one of the three non-complementary nucleobases. For example, when (X=T,Y=G,Z=A) then V=A or C or G etc. Thus each of the twelve oligonucleotides contains one of the twelve possible base pair mismatches relative to the PNA pentadecamer. […] Hybridizations were performed in 10 mM Na-phosphate, pH 7.0, 150 mM NaCl, 1 mM MgCl2.

complementary DNA = assay: Thermodynamics of duplex formation with DNA
Protocol: (§2) Thermodynamics parameters for hybridization can be extracted from thermal stability measurements when these are performed at varying concentrations of the complexes, or from the shape of the thermal denaturation curves. Both methods were used to determine ΔH°, ΔS° and ΔG° for formation of the PNA/RNA, DNA/RNA, PNA/DNA and DNA/DNA duplexes (Table III). It is remarkable that the decrease in entropy is almost identical for the formation of DNA/DNA and PNA/DNA duplexes and that both reactions are strongly enthalpy driven.

complementary RNA [4] = assay: Thermodynamics of duplex formation with RNA
Protocol: as §2

[5] = test system: RNA target 5′-TAGTTGTGACGTACA-3; assay: Equilibrium and rate constants for duplexes with RNA (gel-shift); conditions: [Na+] 0.1 M, 37 ° C.; 100 mM NaCl, 10 mM phosphate, 1 mM EDTA, pH 7.0
[6] = 8 μM, average of the two methods
[7] = 8 μM, fit to modified two state model
[8] = 8 μM, linear plots of 1/TM versus log (concentration)
[9] = fit to modified two state model
[10] = fit to modified two state model, 100 mM NaCl, 10 mM Na-phosphate, 0.1 mM EDTA, pH 7.0
[11] = linear plots of 1/TM versus log (concentration)

## H-TGTACGTCACAACTA-NH2 (all peptide nucleic acid (PNA), 3' {NH2}; written N- to C-terminal) [PNA TGTACGTCACAACTA]
[1]; anti-parallel
  Melting temperature Tm, PNA:DNA (anti-parallel): 69.5 °C
[1]; parallel
  Melting temperature Tm, PNA:DNA (parallel): 56.1 °C
Complementary RNA [2]; anti-parallel
  Melting temperature Tm, PNA:RNA (anti-parallel): 72.3 °C
Complementary RNA [2]; parallel
  Melting temperature Tm, PNA:RNA (parallel): 51.2 °C
[3]
  change in Tm on a Watson-Crick base pair mismatch: 8-20 °C
Complementary DNA; [6]
  TM (average of the two methods): 68.8 °C
Complementary DNA; [7]
  TM (melting curve fit): 68.9 °C
Complementary DNA; [8]
  TM (1/TM versus log concentration): 68.8 °C
Complementary DNA; average of the two methods
  ΔG°37 (average of the two methods): -17.9 kcal/mol
  ΔH° (average of the two methods): -105.0 kcal/mol
  ΔS° (average of the two methods): −281.1 eu
Complementary DNA; [9]
  ΔG°3 (melting curve fit): −17.7
  ΔS° (melting curve fit): −276.4 eu
Complementary DNA; [10]
  ΔH° (melting curve fit): -103.5 kcal/mol
Complementary DNA; [11]
  ΔG°37 (1/TM versus log concentration): −18.0 kcal/mol
  ΔH° (1/TM versus log concentration): −106.6 kcal/mol
  ΔS° (1/TM versus log concentration): −285.8 eu
Complementary RNA [4]; [6]
  TM (average of the two methods): 72.2 °C
Complementary RNA [4]; [7]
  TM (melting curve fit): 72.3 °C
Complementary RNA [4]; [8]
  TM (1/TM versus log concentration): 72.2 °C
Complementary RNA [4]; average of the two methods
  ΔG°37 (average of the two methods): -20.2 kcal/mol
  ΔH° (average of the two methods): -119.1 kcal/mol
  ΔS° (average of the two methods): −318.7 eu
Complementary RNA [4]; [9]
  ΔG°3 (melting curve fit): −19.3
  ΔS° (melting curve fit): −291.4 eu
Complementary RNA [4]; [10]
  ΔH° (melting curve fit): -109.7 kcal/mol
Complementary RNA [4]; [11]
  ΔG°37 (1/TM versus log concentration): −21.2 kcal/mol
  ΔH° (1/TM versus log concentration): −128.5 kcal/mol
  ΔS° (1/TM versus log concentration): −345.9 eu
[5]
  k1: 2e+06 M⁻¹ s⁻¹
